Reference: PubChem BioAssay AID1117319 (Southern Research Institute, 2015)
Records with an inconclusive call do not appear.

molecular target: Virion infectivity factor (Human immunodeficiency virus type 1 group M subtype B (isolate BH10)) + Virion infectivity factor (Human immunodeficiency virus type 1 group M subtype B (isolate BRU/LAI)) + Virion infectivity factor (Human immunodeficiency virus type 1 group M subtype B (isolate PCV12)) + Virion infectivity factor (Human immunodeficiency virus type 1 group M subtype B (isolate HXB2)) + DNA dC->dU-editing enzyme APOBEC-3G (Homo sapiens) (UniProt P69720+P69721+P69722+P69723+Q9HC16); assay: HIV-1 Vif–A3G interaction blockers – biochemical, TR-FRET, GST-Vif 1-94, biotin-A3G peptide, dose response retest, primary screen (AID 1117319); settings: TR-FRET GST-Vif / biotin-A3G peptide binding;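 further: Vif residues 1-94 fused to GST binding biotinylated APOBEC3G peptide 110-148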

| SMILES | IC50 [µM] |
| --- | --- |
| COC(=O)c1ccccc1NC(=O)c1noc2c1CCC2 | 26 |
| O=C1C=CC(=O)c2c(O)c(CO)c(CO)c(O)c21 | 0.47 |
| Nc1ccc(N(CCO)CCO)cc1 | 2.17 |
| CCOC(=O)Cc1cc(=O)n2[nH]c(C)cc2n1 | 75.3 |
| O=C(COC(=O)Cc1ccc(Cl)cc1)NCc1ccco1 | 7.37 |
| C=CC(=O)N1C/C(=C/c2ccc(F)cc2)C(=O)/C(=C\c2ccc(F)cc2)C1 | 7.41 |
| CCn1c(SC(C)C(=O)O)nc2sc3c(c2c1=O)CCC3 (configuration not stated) | 8.89 |
| O=C(Cc1ncn[nH]1)NCCc1ccccc1 | 96.9 |
| CCOc1ccc(-c2nnn(CC(=O)c3ccc4c(c3)OCCO4)n2)cc1OCC | 29.1 |
| CC1Cc2ccccc2N1Cc1nc2cc(C(F)(F)F)ccc2c(=O)[nH]1 (configuration not stated) | 74.5 |
| CN(C)S(=O)(=O)c1cccc(NC(=S)N/N=C/c2ccc(O)c(O)c2O)c1 | 1.88 |
| CCOC(=O)/C=C1\SCC(=O)N1CC(=O)NC(C)c1ccc(F)cc1 (configuration not stated) | 28.8 |
| CC(/C=C1\SC(=S)N(CCCC(=O)Nc2ccc(C(=O)O)c(O)c2)C1=O)=C\c1ccccc1 | 5.1 |
| CCOc1ccc(NC(=O)CCS(=O)(=O)c2ccc(Br)cc2)cc1 | 14.2 |
| COc1cccc(NC(=O)CSc2nnc(-c3ccco3)c(-c3ccco3)n2)c1 | 10.2 |
| CCN(CC)c1ccc2oc(=O)c(C)nc2c1 | 2.87 |
| CN(C)c1ccc(C=c2c3cc([N+](=O)[O-])ccc3n3c2cc(-c2ccccc2)[n+]3C)cc1 | 3.58 |
| O=C(NCCS(=O)CCNC(=O)C(F)(F)F)C(F)(F)F | 95 |
| Cc1cc(NC(=O)Cc2cccs2)no1 | 3.92 |
| CC1C/C(=C/c2ccco2)C(=O)/C(=C/c2ccco2)C1 (configuration not stated) | 1.89 |
| O=C(CN1C(=O)NC2(CCCCCCC2)C1=O)NCc1ccc2c(c1)OCO2 | 99.2 |
| CCCSC1=N/C(=C\c2ccc([N+](=O)[O-])o2)C(=O)S1 | 12.9 |
| COc1ccc(NC(=O)/C(C#N)=C\c2ccc(Br)o2)cc1 | 6.29 |
| CCOC(=O)C1CCCN(C(=O)c2ccc(CNc3c(N4CCC(C)CC4)c(=O)c3=O)cc2)C1 (configuration not stated) | 31.4 |
| Cc1ccc(N2C(=O)/C(=C\c3ccco3)SC2=S)cc1 | 7.72 |

| SMILES | IC50 [µM] |
| --- | --- |
| c1ccc(CSc2nnc(-c3ccco3)c(-c3ccco3)n2)cc1 | 6.93 |
| CC(=O)Nc1ccc(S(=O)(=O)Nc2nc3ccccc3nc2Nc2ccc(C(=O)O)c(O)c2)cc1 | 17.4 |
| COc1ccc(/C=N/NC(=O)c2cc(O)c(O)c(O)c2)cc1Cn1cc([N+](=O)[O-])cn1 | 1.07 |
| CC(=O)Nc1cccc(Oc2ncnc3scc(-c4ccccc4)c23)c1 | 16.8 |
| CCCCOc1ccc(C(=O)NCC(=O)NCC(=O)OCC)cc1 | 76.9 |
| Cc1nc2ccc(NC(=O)Cc3cccs3)cc2s1 | 84 |
| O=C1CC(=O)N(Cc2ccco2)C(=O)N1 | 4.49 |
| Cc1ccc(C)c2[nH]c(=O)c(CN(Cc3ccc4c(c3)OCO4)Cc3nnnn3Cc3ccco3)cc12 | 12.4 |
| Cc1noc(C)c1COc1ccc(C(=O)OCC(=O)N2c3ccccc3NC(=O)C2(C)C)cc1 | 14.9 |
| COc1ccc(NC(=O)Nc2cccs2)cc1OC | 34.5 |
| CN(C(=O)COC(=O)c1cc(-c2ccco2)nc2ccccc12)C1CCS(=O)(=O)C1 (configuration not stated) | 1.44 |
| CCC(=O)NC1=C(Cl)C(=O)C(NC(=O)CC)=C(Cl)C1=O | 22.9 |
| Nc1ncnc2oc(-c3ccco3)c(-c3ccco3)c12 | 0.55 |
| COCOC1CCC2C3CCC4=CC(=O)CCC4=C3C=CC12C (configuration not stated) | 23.2 |
| COc1cc(C2Nc3ccccc3C(=O)N2c2ccccc2)ccc1O (configuration not stated) | 39.4 |
| N=C(N)c1ccc(N=Nc2c(O)ccc3c2[nH]c2ccccc23)cc1 | 3.87 |
| COC1=C(N)C(=O)c2nc(C)ccc2C1=O | 18.3 |
| O=C(Nc1ccccc1F)c1coc(=O)c(Br)c1 | 7.06 |
| O/N=C1\CCC\C1=C/c1ccco1 | 7.57 |
| O=C(N/N=C/C=C/c1ccco1)c1ccncc1 | 2.36 |
| CCOC(=O)N1CC=C2C(C#N)=C(N)C(C#N)(C#N)[C@H](c3cccs3)[C@H]2C1 | 4.68 |
| COc1ccc(NC(=O)c2cc(-c3ccco3)nc3ccccc23)cc1S(=O)(=O)N1CCOCC1 | 2.38 |
| COc1cc(C2C(C#N)=C(N)N(c3cccnc3)C3=C2C(=O)CCC3)ccc1O (configuration not stated) | 13.6 |
| CCN(C(=O)c1coc(=O)c(Br)c1)c1ccc2c(c1)OCO2 | 1.06 |
| COc1ccc(OC)c(NC(=O)NCc2ccc(F)cc2)c1 | 58.5 |

| SMILES | IC50 [µM] |
| --- | --- |
| COc1cccc(=O)c2c(C)n(-c3ccc(C(=O)O)cc3)c(C)c12 | 3.22 |
| Cn1cccc1C(=O)NC(=O)COC(=O)CC12CC3CC(CC(Br)(C3)C1)C2 | 58.5 |
| CCN(CC)c1ccc(C=Nc2ccc(N(C)C)cc2)c(O)c1 | 35.7 |
| CCN(CC)c1ccc(NC2=C(Cl)C(=O)c3ccccc3C2=O)cc1 | 3.81 |
| CC(C)CC(NC(=O)/C(=C/c1ccco1)NC(=O)c1ccc(Br)o1)C(=O)O (configuration not stated) | 93.5 |
| O=C1N=C(N2CCN(c3ccccc3)CC2)S/C1=C\c1ccco1 | 4.27 |
| Cc1cc(/C=C2\SC(=S)NC2=O)c(C)n1-c1ccccc1 | 14.1 |
| COc1ccccc1CNC(=O)COC(=O)c1cc(-c2ccco2)nc2ccccc12 | 9.99 |
| COC1=C(N)C(=O)c2nc(-c3nc(C(=O)O)c(C)c(-c4ccc(OC)c(OC)c4O)c3N)ccc2C1=O | 10.8 |
| Oc1ccc(/C=N/N2CCOCC2)c(O)c1O | 12.5 |
| CN=c1scc(C)n1/N=C/c1ccc(O)c(O)c1O | < 1.84 |
| Cc1cc(/C=C2\C(=O)NC(=O)N(c3cccc(F)c3)C2=O)c(C)n1-c1cc(C(=O)O)cc(C(=O)O)c1 | 10.2 |
| NC(=O)c1c(NC(=O)c2ccc(S(=O)(=O)N3CCOCC3)cc2)sc2c1CCCCC2 | 98.3 |
| O=C(NCc1ccc2c(c1)OCO2)c1cc2ncc(Br)cn2n1 | 33.7 |
| O=C(/C=C/c1ccco1)NC(=S)Nc1ccc(C(=O)O)cc1 | 16.1 |
| O=c1[nH]c(=S)[nH]c2c1C(c1ccc(Br)cc1)c1c([nH]c(=S)[nH]c1=O)O2 | 41.1 |
| Cc1ccc(/C=C/C(=O)Nc2ncc(C)s2)o1 | 7.07 |
| O=C(NN1C(=O)/C(=C/C=C/c2ccco2)SC1=S)c1ccccc1O | 1.93 |
| CCN(CC)C(=O)c1ccc2c(c1)C1C(Cl)C(Sc3ccccc3[N+](=O)[O-])CC1C(C(=O)O)N2 (configuration not stated) | 13 |
| O=C(Nc1ccc(F)cc1)C(c1ccccc1)N1CCN(S(=O)(=O)c2ccc3ccccc3c2)CC1 (configuration not stated) | 13.5 |
| C=C(C)C(=O)Nc1cccc(C2=NOC3(C2)C[C@H](C(N)=O)N(C(=O)C(c2ccccc2)c2ccccc2)C3)c1 (some centres not stated) | 2.41 |
| O=C(CSc1ccccc1)N1CCN(c2ccccc2)CC1 | 67.4 |
| COc1cc2c(cc1OC)C(=O)C(Br)CC2 (configuration not stated) | 1.48 |
| O=C(/C=C/c1ccc(O)c(O)c1)OC1C(O)CC(OC(=O)/C=C/c2ccc(O)c(O)c2)(C(=O)O)CC1O (configuration not stated) | 16.2 |
| O=[N+]([O-])c1ccc(O)c2ncccc12 | 46.5 |

| SMILES | IC50 [µM] |
| --- | --- |
| Cc1sc2ncnc(SCc3ccco3)c2c1C | 28.2 |
| CC(C)NC[C@@H](O)c1ccc(O)c(O)c1 | 4.93 |
| CN1CCN(C2=C(Cl)C(=O)c3ccccc3C2=O)CC1 | 4.42 |
| Cc1nc2ccccc2n2c(O)c(CC(=O)O)cc12 | 30.2 |
| COc1cccc(-c2cn3nc4c(nc3n2)CCCC4)c1 | 17.6 |
| O=C(C1CCCO1)N1CCC2(CC1)OCCO2 (configuration not stated) | 1.39 |
| COc1ccc(Oc2nc(C)cc(C)c2C#N)cc1 | 59.3 |
| O=c1[nH]nc(CNc2ccc(O)cc2)c2ccccc12 | 3.45 |
| O=C1c2c(O)ccc(O)c2C(=O)c2c(NCCNCCO)ccc(NCCNCCO)c21 | 7.96 |
| c1ccc2c3c([nH]c2c1)CNCC3 | 84.2 |
| CN=c1scc(-c2ccco2)n1/N=C/c1ccc(O)c(O)c1 | 9.26 |
| CN1c2ccsc2C(O)=C(C(=S)Nc2ccc(F)c(Cl)c2)S1(=O)=O | 1.12 |
| COc1ccc(CCNC(=O)/C=C/c2ccco2)cc1 | 37 |
| Cc1cc(-c2cc(-c3ccc(Cl)cc3)nc(N)c2C#N)co1 | 12.4 |
| O=S(=O)(O)c1cc(O)c(N=Nc2ccc(O)cc2O)c2ccccc12 | 5.25 |
| O=S(=O)(c1ccc(NC(=S)N/N=C/c2ccc(O)c(O)c2)cc1)N1CCOCC1 | 7.53 |
| COc1cccc(N2C(=O)NC(=O)/C(=C/c3ccc([N+](=O)[O-])s3)C2=O)c1 | 7.18 |
| O=C1/C(=C/C=C/c2ccco2)SC(=S)N1c1ccc(O)cc1 | 2.57 |
| CCOC(=O)c1ccc2c(c1)C1C=CCC1C(C(=O)O)N2 (configuration not stated) | 1.25 |
| Cc1cc([N+](=O)[O-])cc2c1NC(c1ccccn1)C1CC=CC21 (configuration not stated) | 3.03 |
| N#C/C(=C\c1ccc([N+](=O)[O-])o1)C(=O)Nc1ccc(F)cc1 | 7.59 |
| COc1ccc(Nc2ccc(OC)cc2)cc1 | 6.72 |
